Experimental data: patent US20080026996A1, “Selective Vpac2 Receptor Reptide Agonists” (ELI LILLY AND COMPANY, priority 2004, published 2008)
Where “and” joins values, the source holds several entries; their conditions need not be identical. Equal entries are not always repeated. Where no end group is shown, it is not given here. The star is where a group is joined. Hexanoyl = CCCCCC(=O)*

Tests used:
[1] = molecular target: T1, human VPAC1 (Homo sapiens, UniProt P32241); assay: Filter binding assay, membranes of cells transiently transfected with human VPAC1, 125I-labeled VIP tracer (Table 2); design: expressed in transfected cells; settings: read-out: Human VPAC1 Receptor Binding
T1 sequence (P32241 31-457): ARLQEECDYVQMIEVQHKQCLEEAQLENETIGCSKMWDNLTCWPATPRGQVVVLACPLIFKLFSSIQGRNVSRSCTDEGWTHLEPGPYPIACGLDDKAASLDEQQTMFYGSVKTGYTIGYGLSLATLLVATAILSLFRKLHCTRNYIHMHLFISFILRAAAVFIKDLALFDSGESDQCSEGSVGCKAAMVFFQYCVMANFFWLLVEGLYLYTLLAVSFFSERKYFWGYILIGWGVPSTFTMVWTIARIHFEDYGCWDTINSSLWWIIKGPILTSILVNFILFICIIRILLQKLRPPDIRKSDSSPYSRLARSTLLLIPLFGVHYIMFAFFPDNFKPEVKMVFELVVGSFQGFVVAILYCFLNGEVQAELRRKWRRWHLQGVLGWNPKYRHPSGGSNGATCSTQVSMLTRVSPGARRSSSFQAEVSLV
Method in brief: (§1)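 Scintillation counting of filter-retained radioligand gave the read-out. Compounds competed with the labelled tracer (about 40000 cpm) for 2.5 μg membranes during 1 hour of shaking in HEPES pH 7.4 buffer containing 0.5% BSA.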

[2] = molecular target: T2, human VPAC2 (Homo sapiens, UniProt P41587); assay: Filter binding assay, membranes of stable VPAC2 cell line, 125I-labeled VIP tracer (Table 2); settings: read-out: Human VPAC2 Receptor Binding
T2 construct: expressed in transfected cells
T2 sequence (P41587 24-438): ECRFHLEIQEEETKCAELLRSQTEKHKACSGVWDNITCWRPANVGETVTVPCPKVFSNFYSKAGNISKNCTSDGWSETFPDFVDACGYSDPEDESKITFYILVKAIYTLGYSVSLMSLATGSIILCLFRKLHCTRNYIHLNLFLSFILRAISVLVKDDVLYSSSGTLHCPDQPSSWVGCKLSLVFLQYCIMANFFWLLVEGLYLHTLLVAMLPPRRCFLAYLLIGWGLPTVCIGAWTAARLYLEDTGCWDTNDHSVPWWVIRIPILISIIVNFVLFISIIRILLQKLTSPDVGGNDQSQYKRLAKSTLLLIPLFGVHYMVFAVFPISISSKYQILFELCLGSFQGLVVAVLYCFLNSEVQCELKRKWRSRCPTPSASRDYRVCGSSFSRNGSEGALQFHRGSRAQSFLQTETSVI
Method in brief: as §1

[3] = molecular target: T2, human VPAC2; assay: DiscoveRx cAMP in vitro potency, CHO-S cell line stably expressing human VPAC2 receptor; format: cell-based; settings: cAMP generation; mean of two independent runs
Experimental: (§2) Also, the cells are washed twice. The cells are incubated in assay buffer plus IBMX for 15 minutes at room temperature. […] The stimuli are present for 30 minutes. Then, the assay buffer is gently removed. […] At day 3, the assay described above for the VPAC2 receptor cell line is performed.

[4] = molecular target: T1, human VPAC1; assay: DiscoveRx cAMP in vitro potency, CHO-PO cells transiently transfected with human VPAC1 receptor; format: cell-based; design: expressed in transfected cells; host or cells: CHO-PO, transient (Lipofectamine); settings: cAMP generation; mean of two independent runs; read-out: Human VPAC1 Receptor: DiscoveRx EC50
Experimental: as §2

[5] = molecular target: T3, DPP-IV (Sus scrofa, UniProt P22411); assay: DPP-IV HPLC assay: in vitro incubation with purified dipeptidyl-peptidase IV; format: in vitro ADME, Porcine
T3 construct: purchased Sigma
Experimental: Part 1: Formulation of Selective VPAC2 Receptor Peptide Agonists: […]
Approximately 2 mg of lyophilized peptide is weighed and dissolved in approximately 1.6 mL de-ionized water. […] After incubation at room temperature for 30 minutes, 1/10th of the original volume 10×PBS is added. The pH is adjusted to between pH 7.2 and 7.6. The peptide solution is filtered through a 0.22 μm Millex-GV syringe filter (Millipore, Bedford Mass., USA). The peptide concentration is determined through absorption at 280 nm. The peptide concentration is then adjusted to 100 μM. The peptides are frozen at −20° C. for further use.
Part 2: In Vitro Incubation of Selective VPAC2 Receptor Peptide Agonists with Purified Dipeptidyl-Peptidase IV (DPP-IV):
The stability of selective VPAC2 receptor peptide agonists against proteolysis by DPP-IV is determined using 100 μL of a 100 μM peptide solution in 1×PBS. A 10 μL solution is removed and quenched with 40 μL of 0.1% trifluoroacetic acid (TFA)/20% acetonitrile (ACN). This solution (20 μL) is analyzed by reversed-phase HPLC. The reversed-phase analysis consists of a Zorbax 300SB-C8 column (3.5 micron, 4.6×50 mm, Alltech Associates, Inc., Deerfield Ill., USA) running a 15-40% B gradient over 15 minutes at 60° C. where A-buffer is 0.1% (v/v) TFA in water and B-buffer is 0.085% (v/v) TFA in ACN. The peak area is integrated. This peak area serves as an internal control as 100% intact peptide.
A 10 μL aliquot of a 1.12 mU/μL solution of DPP-IV (Sigma, St. Louis, La., USA) is added to 90 μL of a 100 μM solution of peptide, resulting in a substrate concentration of 90 μM peptide. The reaction mixture is then stored at 37° C. At various time-points, 10 μL of solution is removed, quenched with 40 μL 0.1% TFA/20% ACN, and analyzed by reversed-phase HPLC as described above. The remaining full length peptide concentration (nM) at each timepoint, except time=0, is calculated using following formula: [formula]
For the time=0 timepoint, the concentration (nM) is calculated using the following formula: [formula]

[6] = molecular target: T4, human PAC1 (Homo sapiens, UniProt P41586); assay: DiscoveRx cAMP in vitro potency, CHO-PO cells transiently transfected with human PAC1 receptor; format: cell-based; design: expressed in transfected cells; host or cells: CHO-PO, transient (Lipofectamine); settings: cAMP generation; mean of two independent runs; read-out: Human PAC1 Receptor: DiscoveRx EC50
T4 sequence (P41586 21-468): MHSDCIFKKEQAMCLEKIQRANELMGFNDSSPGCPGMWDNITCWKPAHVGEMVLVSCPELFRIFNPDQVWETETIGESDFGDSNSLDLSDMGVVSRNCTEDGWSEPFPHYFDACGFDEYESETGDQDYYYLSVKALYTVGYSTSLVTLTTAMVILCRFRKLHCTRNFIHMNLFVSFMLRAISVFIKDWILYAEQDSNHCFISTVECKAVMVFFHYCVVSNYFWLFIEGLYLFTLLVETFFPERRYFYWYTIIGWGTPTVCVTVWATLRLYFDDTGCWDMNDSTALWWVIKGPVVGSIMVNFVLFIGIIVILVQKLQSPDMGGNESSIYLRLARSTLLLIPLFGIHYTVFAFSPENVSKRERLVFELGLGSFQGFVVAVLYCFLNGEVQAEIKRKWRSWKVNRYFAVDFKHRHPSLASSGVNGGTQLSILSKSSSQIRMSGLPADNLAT
Experimental: as §2

T3 sequence (P22411 whole entry): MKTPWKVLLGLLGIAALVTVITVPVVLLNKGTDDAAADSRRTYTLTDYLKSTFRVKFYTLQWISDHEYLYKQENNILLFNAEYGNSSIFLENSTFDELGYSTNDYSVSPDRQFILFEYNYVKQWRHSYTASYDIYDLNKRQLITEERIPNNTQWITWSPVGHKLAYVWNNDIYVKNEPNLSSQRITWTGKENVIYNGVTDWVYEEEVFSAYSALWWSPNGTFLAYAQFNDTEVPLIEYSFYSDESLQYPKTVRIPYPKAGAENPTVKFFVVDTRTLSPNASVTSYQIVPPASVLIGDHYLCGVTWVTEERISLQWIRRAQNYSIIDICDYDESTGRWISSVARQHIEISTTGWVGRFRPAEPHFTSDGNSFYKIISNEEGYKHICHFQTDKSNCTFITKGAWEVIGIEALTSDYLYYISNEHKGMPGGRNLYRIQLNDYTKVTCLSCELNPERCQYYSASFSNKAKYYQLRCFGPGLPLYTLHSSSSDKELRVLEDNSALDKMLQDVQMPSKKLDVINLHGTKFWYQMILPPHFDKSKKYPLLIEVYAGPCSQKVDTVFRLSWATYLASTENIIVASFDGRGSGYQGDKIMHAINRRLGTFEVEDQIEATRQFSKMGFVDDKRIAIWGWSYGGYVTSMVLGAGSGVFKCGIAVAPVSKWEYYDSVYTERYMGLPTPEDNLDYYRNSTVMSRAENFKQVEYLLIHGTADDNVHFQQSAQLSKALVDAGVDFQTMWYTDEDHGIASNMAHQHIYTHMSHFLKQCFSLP

| Substance | IC50 [1] [nM] | IC50 [2] [nM] | EC50 [3] [nM] | EC50 [4] [nM] | EC50 [6] [nM] | also measured |
| --- | --- | --- | --- | --- | --- | --- |
| HSDAVFTDNYTRLRKQVAAKKYLQSIKNGRPSSGAPPPS [Agonist P92] | 74.6 | 0.86 | 8.2 | – | – | – |
| HSDAVFTDNYTRLRKQVAAKKYLQSIRNKRYGGPSSGAPPPS [Agonist P23] | 150 | 0.92 | 1.41 | 0.9 | – | – |
| Hexanoyl-HSDAVFTDNYTRLLAKLALQKYLQSIKNKRYGGPSSGAPPPS [VPAC2-P119] | – | – | – | – | – | Concentration (nM) of Remaining Main Peak by RP-HPLC after Incubation of Peptide with Purified Porcine DPP-IV ([5]; Time = 0 hours at 37° C.): 9.0 nM; Concentration (nM) of Remaining Main Peak by RP-HPLC after Incubation of Peptide with Purified Porcine DPP-IV ([5]; Time = 2 hours at 37° C.): 8.0 nM; Concentration (nM) of Remaining Main Peak by RP-HPLC after Incubation of Peptide with Purified Porcine DPP-IV ([5]; Time = 6 hours at 37° C.): 6.6 nM; Concentration (nM) of Remaining Main Peak by RP-HPLC after Incubation of Peptide with Purified Porcine DPP-IV ([5]; Time = 24 hours at 37° C.): 4.2 nM |
| H-HSDAVFTDNYTRFRKQVAAKKYLQSIKNKRYGGPSSGAPPPS [Agonist P26] | – | – | – | 0.9 | – | – |
| HSDAVITDNYTRLRKQVAAKKYLQSIKNKRYGGPSSGAPPPS [Agonist P63] | – | – | > 1000 | > 1000 | – | – |
| H-HSDAVFTDNYTRAKAKVAAKKYLQSIKNKRYGGPSSGAPPPS [Agonist P94] | 271 | 71.5 | > 1000 | – | – | – |
| Ac-HSDAVFTDNYTRLRKQVAAKKYLQSIKNKRYGGPSSGAPPPS [Agonist P33] | 120 | 2.31 | 0.86 | – | 111 | – |
| HSDATFTDNYTRLRKQVAAKKYLQSIKNKRYGGPSSGAPPPS [Agonist P62] | – | – | 13.2 | – | 137 | – |
| H-HSDAVTTDNYTRLRKQVAAKKYLQSIKNKRYGGPSSGAPPPS [Agonist P65] | – | – | > 1000 | > 1000 | 0.7 | – |
| H-HSDAVFTDNYTRLRKQVAARKYLQSIKNKRYGGPSSGAPPPS [Agonist P20] | 98.7 | 2.5 | 2.13 | – | > 25 | – |
| VPAC2-P44 (HVDAVFTDNYTRLRKQVAAKKYLQSIKNKRYGGPSSGAPPPS; not fully specified (N-terminus)) | – | – | – | – | – | Concentration (nM) of Remaining Main Peak by RP-HPLC after Incubation of Peptide with Purified Porcine DPP-IV ([5]; Time = 0 hours at 37° C.): 9.0 nM; Concentration (nM) of Remaining Main Peak by RP-HPLC after Incubation of Peptide with Purified Porcine DPP-IV ([5]; Time = 2 hours at 37° C.): 6.4 nM and 7.9 nM and 4.5 nM and 6.5 nM |
| HSDAVVTDNYTRLRKQVAAKKYLQSIKNKRYGGPSSGAPPPS [Agonist P66] | – | – | > 1000 | < 1000 | – | – |
